Measurements: patent publication US9420813B2, “Sweetener” (AJINOMOTO CO., INC., priority 2007, dated 2016)
*1 amine or outer side, *2 acyl side, *3 side chain or, on linkers, in order; H or OH if unused. Where no end group is shown, it is not given here. [ ]: non-standard residue; d: D form. γGlu = O=C(O)[C@H](CCC(=O)[*:2])N[*:1]; Abu = CC[C@H](N)C(=O)O

Experiments:
[1] = Quantitative sensory evaluation, improvement of body taste and bitterness of single high-intensity sweeteners (Examples 1 and 3); parameters: species or system human; conditions: for Bitterness: control 0, <0 improved; for Bitterness / Body taste: n=12; for Body taste: control 0, >0 improved; for improvement of the body taste (conclusion in words): APM, sucralose or Ace-K solutions, Tables 6 to 8 and 13 to 15
Method: The quantitative sensory evaluation test was performed as follows. As for standard solutions of each sweetener, the following compounds were used. The following standard solutions were adjusted so that they each have almost the same degree of sweetness.
iii) Sucralose (0.008 g/dl)
To distilled water containing each of the above sweeteners, γ-Glu-Cys-Gly (glutathione), γ-Glu-Val-Gly, or γ-Glu-Abu-Gly was added and mixed at concentrations of 0.0001 to 1 g/dl, and then the degree of the improvement of the body taste and the improvement of the bitterness on the sweet taste was measured.
When one of the mixtures is more acidic than the standard control solution, the pH of the sample solution was adjusted with NaOH to achieve a range of pH±0.2 with respect to the pH of the standard solution before use.
(§1) The sensory evaluation for the improvement of the body taste was performed with n=12 on the basis of the following criteria: a control (obtained by adding distilled water only and without adding glutathione and/or the peptide) was defined as 0, and by using the control as a standard, the following were defined: weak: −2 points; slightly weak: −1 point; slightly strong: 1 point, and strong: 2 points. A higher score than 0 means that the sample improved the body taste.
as §1, with “Alternatively, the” for “The”, “bitterness” for “body taste”, “lower” for “higher”, “improves” for “improved”, “bitterness.” for “body taste.”
The quantitative sensory evaluation test was performed as follows. As for standard solutions of each sweetener, the following compounds were used. The following standard solutions have been adjusted so as they each have almost the same degree of sweetness.
To distilled water containing each sweeteners, γ-Glu-Val-Gly or cinacalcet was mixed as a sample at concentrations of 0.0001 to 1 g/dl, respectively, and then each degree of the improvement of the body taste and the improvement of the bitterness on the sweet taste was measured.
When a mixture is more acidic than the standard control solution, the pH of the mixture was adjusted with NaOH to achieve a range of pH±0.2 with respect to the pH of the standard solution before use.
as §1, with “a sample)” for “glutathione and/or the peptide)”, “improves” for “improved”
Alternatively, the sensory evaluation for the improvement of the bitterness was performed with n=12 on the basis of the following criteria: a control (obtained with adding distilled water only and without adding a sample) was defined as 0, and by using the control as a standard, the following were defined: weak: −2 points; slightly weak: −1 point; slightly strong: 1 point, and strong: 2 points. A lower score than 0 means that the sample improves the bitterness.

[2] = Quantitative sensory evaluation test, intensity of kokumi-imparting activity; parameters: key to Kokumi intensity, initial and middle taste / Kokumi intensity, aftertaste / Taste profile: *: Unmeasurable: kokumi-imparting activity is too strong to measure by sensory evaluation
Method: The quantitative sensory evaluation test was performed as follows. […] When a sample is acidic when dissolved, the pH was adjusted with NaOH to pH 6.8 to 7.2 before use. Because it is known that glutathione can impart kokumi to a food, glutathione was used as a comparative control. The test was performed with n=3 based on the following sensory evaluation scores: control was given 0 points, glutathione addition was given 3 points. […] It should be noted that the term “initial and middle taste” is a collective term of the initial taste and middle taste.
The quantitative sensory evaluation test was performed as follows. […] When a sample is acidic when dissolved, the pH of the sample was adjusted with NaOH to pH 6.8 to 7.2 before use. The test was performed with n=5 based on the following sensory evaluation scores: control was given 0 point and glutathione addition was given 3 points.
The quantitative sensory evaluation test was performed as follows. […] As for a sample which is acidic when the sample is dissolved, pH of the sample was adjusted with NaOH to pH 6.8 to 7.2 before use. The test was performed with n=12 based on the following sensory evaluation scores: control: 0 point and glutathione addition: 3 points.

[3] = APM 0.025 g/dl, sample 0.0001 g/dl
[4] = APM 0.025 g/dl, sample 0.001 g/dl
[5] = Ace-K 0.025 g/dl, sample 0.0001 g/dl
[6] = Ace-K 0.025 g/dl, sample 0.001 g/dl
[7] = sucralose 0.008 g/dl, sample 0.0001 g/dl
[8] = sucralose 0.008 g/dl, sample 0.001 g/dl
[9] = sample 0.01 g/dl, control 0, glutathione 3 points, n=5
[10] = sample 0.01 g/dl, control 0, glutathione 3 points, n=12
[11] = APM 0.025 g/dl, sample 0.001 g/dl (γ-Glu-Abu-Gly of Table 6)
[12] = Ace-K 0.025 g/dl, sample 0.01 g/dl
[13] = sucralose 0.008 g/dl, sample 0.01 g/dl
[14] = sample 0.1 g/dl, control 0, glutathione 3 points, n=3
[15] = sample 0.1 g/dl, control 0, glutathione 3 points, n=5
[16] = sample 0.1 g/dl, control 0, glutathione 3 points, n=12
[17] = APM 0.025 g/dl, sample 0.05 g/dl
[18] = Ace-K 0.025 g/dl, sample 0.05 g/dl
[19] = sucralose 0.008 g/dl, sample 0.05 g/dl

## C[C@@H](NCCCc1cccc(C(F)(F)F)c1)c1cccc2ccccc12 [Cinacalcet, (R)—N-(3-(3-(trifluoromethyl)phenyl)propyl)-1-(1-naphthyl)ethylamine, reference compound]
[1]; [3]
  Bitterness: −0.2 points
  Body taste: 0.8 points
[1]; [4]
  Bitterness: −0.5 points
  Body taste: 1.5 points
[1]
  improvement of the body taste (conclusion in words): improve the body taste at almost the same concentration
[1]; [5]
  Taste profile: Sweet taste with growth is enhanced in middle
  Bitterness: −0.2 points
  Body taste: 0.6 points
[1]; [6]
  Taste profile: Sweet taste with growth is enhanced in middle
  Bitterness: −0.3 points
  Body taste: 1.1 points
[1]; [7]
  Bitterness: −0.1 points
  Body taste: 0.5 points
[1]; [8]
  Bitterness: −0.2 points
  Body taste: 1.1 points

## [γGlu]-Val-Gly
[2]; [9]
  Kokumi intensity, aftertaste: 3.0 points
  Kokumi intensity, initial and middle taste: 3.0 points
[2]; [10]
  Kokumi intensity, aftertaste: 3.0 points
  Kokumi intensity, initial and middle taste: 3.0 points
[2]; sample 0.1 g/dl, n=5, symbol
  Kokumi intensity, aftertaste: *
  Kokumi intensity, initial and middle taste: *
  Taste profile: *
[1]; [3]
  Bitterness: −0.2 points
  Body taste: 0.5 points
[1]; [4]
  Bitterness: −0.5 points
  Body taste: 1.3 points
[1]
  improvement of the body taste (conclusion in words): improve the body taste at almost the same concentration
[1]; [5]
  Taste profile: Sweet taste with growth is enhanced in middle
  Bitterness: −0.6 points
  Body taste: 0.7 points
[1]; [6]
  Taste profile: Sweet taste with growth is enhanced in middle
  Bitterness: −1.2 points
  Body taste: 1.2 points
[1]; [7]
  Bitterness: −0.1 points
  Body taste: 0.7 points
[1]; [8]
  Bitterness: −0.2 points
  Body taste: 1.3 points

## [γGlu]-[Abu]-Gly
[2]; [10]
  Kokumi intensity, aftertaste: 2.0 points
  Kokumi intensity, initial and middle taste: 3.0 points
[1]; [4]
  Taste profile: Sweet taste is enhanced in initial taste
  Bitterness: −0.1 points
  Body taste: 0.7 points
[1]; [11]
  Taste profile: Sweet taste is enhanced in initial taste
  Bitterness: −0.1 points
  Body taste: 1.5 points
[1]; [6]
  Bitterness: −0.6 points
  Body taste: 0.5 points
[1]; [12]
  Bitterness: −1.2 points
  Body taste: 1.1 points
[1]; [8]
  Bitterness: −0.1 points
  Body taste: 0.5 points
[1]; [13]
  Bitterness: −0.1 points
  Body taste: 1.0 points

## N[C@@H](CCC(=O)N[C@@H](CS)C(=O)NCC(=O)O)C(=O)O [γ-Glu-Cys-Gly, reference compound]
[2]; [14]
  Kokumi intensity, aftertaste: 3.0 points
  Kokumi intensity, initial and middle taste: 3.0 points
[2]; [15]
  Kokumi intensity, aftertaste: 3.0 points
  Kokumi intensity, initial and middle taste: 3.0 points
[2]; [16]
  Kokumi intensity, aftertaste: 3.0 points
  Kokumi intensity, initial and middle taste: 3.0 points
[2]; sample 0.1 g/dl, n=3
  Evaluation comments: Thickness,
[2]; sample 0.1 g/dl, n=5
  Taste profile: Thickness,
[2]; sample 0.1 g/dl, n=12
  Taste profile: Thickness,
[1]; [17]
  Taste profile: Sweet taste is wholly enhanced.
  Bitterness: −0.5 points
  Body taste: 1.0 points
[1]; [18]
  Bitterness: −0.6 points
  Body taste: 1.0 points
[1]; [19]
  Taste profile: Sweet taste with growth is enhanced in middle
  Bitterness: 0 points
  Body taste: 1.0 points
